A word on the IC50: it is the point on the concentration scale where inhibition reaches its midpoint.

From ChEMBL document CHEMBL1145423, “Synthesis and pharmacological evaluation of phenylethynyl[1,2,4]methyltriazines as analogues of 3-methyl-6-(phenylethynyl)pyridine” (J Med Chem, 2007) come the findings set out here.

The structures appear in SMILES notation. Calls of active or inactive are those of the source. No cut-off for these calls is given here.

The target in experiment [1] is Metabotropic glutamate receptor 5 (Homo sapiens, UniProt P41594). Kind of experiment: Antagonist activity at human mGluR5 receptor expressed in CHOK1 cells assessed as inhibition of glutamate-mediated internal calcium mobilization. It is filed as functional, cell-based, CHO-K1.
Metabotropic glutamate receptor 5, sequence (P41594 whole entry): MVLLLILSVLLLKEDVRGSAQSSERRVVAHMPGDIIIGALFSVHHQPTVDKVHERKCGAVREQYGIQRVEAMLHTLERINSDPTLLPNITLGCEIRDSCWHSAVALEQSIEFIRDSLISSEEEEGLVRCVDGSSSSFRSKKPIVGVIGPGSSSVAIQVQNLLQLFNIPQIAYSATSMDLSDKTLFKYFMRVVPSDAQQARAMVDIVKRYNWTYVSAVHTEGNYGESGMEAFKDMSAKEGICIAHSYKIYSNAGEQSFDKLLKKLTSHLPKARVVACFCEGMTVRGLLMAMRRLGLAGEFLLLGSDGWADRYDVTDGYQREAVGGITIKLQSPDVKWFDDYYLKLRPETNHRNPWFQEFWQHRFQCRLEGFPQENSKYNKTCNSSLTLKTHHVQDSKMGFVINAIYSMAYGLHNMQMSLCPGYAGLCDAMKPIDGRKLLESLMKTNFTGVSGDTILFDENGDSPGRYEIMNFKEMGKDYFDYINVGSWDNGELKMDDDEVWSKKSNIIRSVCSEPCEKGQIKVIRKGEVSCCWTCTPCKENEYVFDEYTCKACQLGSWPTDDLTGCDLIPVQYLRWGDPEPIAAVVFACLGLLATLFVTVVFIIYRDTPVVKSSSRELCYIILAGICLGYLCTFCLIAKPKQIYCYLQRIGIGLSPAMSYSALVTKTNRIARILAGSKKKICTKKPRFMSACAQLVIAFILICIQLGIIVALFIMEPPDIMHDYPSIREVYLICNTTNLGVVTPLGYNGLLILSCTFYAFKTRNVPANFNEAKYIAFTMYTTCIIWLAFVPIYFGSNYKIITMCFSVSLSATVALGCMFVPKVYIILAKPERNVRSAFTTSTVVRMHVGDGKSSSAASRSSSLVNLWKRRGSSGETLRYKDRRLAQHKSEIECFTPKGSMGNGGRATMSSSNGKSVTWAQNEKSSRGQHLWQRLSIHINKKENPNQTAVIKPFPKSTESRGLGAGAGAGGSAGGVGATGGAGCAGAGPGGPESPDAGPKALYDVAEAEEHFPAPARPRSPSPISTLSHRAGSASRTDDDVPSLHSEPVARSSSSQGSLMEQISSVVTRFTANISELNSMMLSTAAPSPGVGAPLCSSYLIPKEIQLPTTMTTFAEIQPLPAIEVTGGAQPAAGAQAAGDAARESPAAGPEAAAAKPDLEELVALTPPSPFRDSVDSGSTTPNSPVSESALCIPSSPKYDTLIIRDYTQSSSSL
Experiment [2] deals with Metabotropic glutamate receptor 1 (Homo sapiens) (UniProt Q13255). Kind of experiment: Antagonist activity at human mGluR1 receptor expressed in CHOK1 cells assessed as inhibition of glutamate-mediated internal calcium mobilization. The following applies: CHO-K1. Format: functional, cell-based. (In general: Calcium flux is commonly read through the fluorescence of an indicator in the cells.)
Metabotropic glutamate receptor 1 (Homo sapiens), sequence (Q13255 19-1194 limits assumed): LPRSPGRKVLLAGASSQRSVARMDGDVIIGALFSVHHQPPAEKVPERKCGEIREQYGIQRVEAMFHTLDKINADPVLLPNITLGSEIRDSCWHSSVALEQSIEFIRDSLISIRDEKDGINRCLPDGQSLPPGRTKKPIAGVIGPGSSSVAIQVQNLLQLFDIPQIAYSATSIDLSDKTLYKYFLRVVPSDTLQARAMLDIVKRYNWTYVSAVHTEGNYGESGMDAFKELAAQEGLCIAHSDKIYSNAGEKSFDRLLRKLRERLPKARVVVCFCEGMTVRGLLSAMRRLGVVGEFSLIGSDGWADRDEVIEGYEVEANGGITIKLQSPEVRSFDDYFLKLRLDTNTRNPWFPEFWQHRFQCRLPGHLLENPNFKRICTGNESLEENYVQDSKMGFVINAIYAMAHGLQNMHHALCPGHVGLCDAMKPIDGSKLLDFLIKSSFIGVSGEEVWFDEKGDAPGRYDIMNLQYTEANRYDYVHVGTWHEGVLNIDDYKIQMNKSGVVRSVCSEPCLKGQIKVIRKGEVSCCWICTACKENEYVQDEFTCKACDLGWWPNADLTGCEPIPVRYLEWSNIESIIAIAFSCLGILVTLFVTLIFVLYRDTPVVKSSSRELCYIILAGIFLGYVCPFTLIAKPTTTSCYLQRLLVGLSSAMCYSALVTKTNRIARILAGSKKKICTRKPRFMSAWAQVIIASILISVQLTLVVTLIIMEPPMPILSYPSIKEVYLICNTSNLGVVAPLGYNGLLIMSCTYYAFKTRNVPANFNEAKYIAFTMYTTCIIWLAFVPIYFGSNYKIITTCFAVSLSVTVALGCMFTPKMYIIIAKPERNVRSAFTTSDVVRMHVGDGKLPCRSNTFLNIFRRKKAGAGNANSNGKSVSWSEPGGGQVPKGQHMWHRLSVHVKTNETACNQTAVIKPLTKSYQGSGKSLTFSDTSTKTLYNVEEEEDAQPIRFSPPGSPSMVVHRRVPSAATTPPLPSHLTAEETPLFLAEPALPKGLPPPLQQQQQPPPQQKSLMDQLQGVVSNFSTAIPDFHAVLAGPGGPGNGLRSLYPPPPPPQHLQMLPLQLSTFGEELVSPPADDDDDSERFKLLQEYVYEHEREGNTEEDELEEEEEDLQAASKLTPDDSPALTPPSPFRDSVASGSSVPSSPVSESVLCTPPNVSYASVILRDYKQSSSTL

Consider `Cc1cnnc(C#Cc2cc(C(F)(F)F)cc(C(F)(F)F)c2)n1`, for which the half-inhibitory concentration (IC50) entry in experiment [1] (cho-k1) is recorded as “Not Active”.

Turning to `Cc1cnnc(C#Cc2ccc3ccccc3c2)n1`, in experiment [1] (cho-k1), the IC50 entry was “Not Active”.

As to `Cc1cnnc(C#Cc2cccc(F)c2)n1`, the IC50 in experiment [1] (read-out: IC50) turned out to be 96 nM. Also, the result in experiment [2] was inactive.

For `Cc1cnnc(C#Cc2ccc(C(F)(F)F)cc2)n1`, the IC50 result in experiment [1] (cho-k1) is “Not Active”.

For the molecule `COc1cccc(C#Cc2nncc(C)n2)c1`, the concentration for half-maximal inhibition (IC50) in experiment [1] (read-out: IC50) was 312 nM. The outcome in experiment [2] was inactive.

Turning to `Cc1cnnc(C#Cc2ccc(F)c(C)c2)n1`, in experiment [1] (read-out: IC50), the IC50 was 132 nM. The result in experiment [2] was inactive.

With `Cc1cnnc(C#Cc2cccc(Cl)c2)n1`, in experiment [1] (read-out: IC50), the IC50 was found to be 4.2 nM. Also, the outcome in experiment [2] was inactive.

For the molecule `Cc1cnnc(C#Cc2ccccc2C)n1`, the IC50 entry in experiment [1] (cho-k1) was “Not Active”.

Turning to `Cc1cnnc(C#Cc2ccc(F)cc2F)n1`, in experiment [1] (cho-k1), the IC50 entry is given as “Not Active”.

As for `Cc1ccc(C)c(C#Cc2nncc(C)n2)c1`, the half-inhibitory concentration (IC50) in experiment [1] (read-out: IC50) was 1890 nM. The outcome in experiment [2] was inactive.

Regarding `Cc1cnc(C#Cc2ccccc2)nn1`, the concentration for half-maximal inhibition (IC50) result in experiment [1] (cho-k1) is “Not Active”.

As for `Cc1cnnc(C#Cc2cccc(C#N)c2)n1`, the IC50 in experiment [1] (read-out: IC50) is 52 nM. In addition, in experiment [2], the outcome was inactive.

Take `Cc1cccc(C#Cc2nncc(C)n2)c1`: the IC50 in experiment [1] (read-out: IC50) was found to be 2.3 nM. Moreover, in experiment [2], the outcome was inactive.

Consider `COc1ccc(C#Cc2nncc(C)n2)c(C)c1`, for which the IC50 result in experiment [1] (cho-k1) is recorded as “Not Active”.

Turning to `COc1ccccc1C#Cc1nncc(C)n1`, in experiment [1] (cho-k1), the IC50 entry is “Not Active”.

For the molecule `Cc1cnnc(C#Cc2ccc(-c3ccccc3)cc2)n1`, the IC50 in experiment [1] (read-out: IC50) turned out to be 510 nM. Also, the result in experiment [2] was inactive.

`Cc1cnnc(C#Cc2ccccc2)n1`: in experiment [1] (read-out: IC50), the IC50 came out at 140 nM. For the same molecule, in experiment [2], the outcome was inactive.

On to `Cc1cnnc(C#Cc2cccc3ccccc23)n1`, for which the IC50 in experiment [1] (read-out: IC50) was 8900 nM. Moreover, the outcome in experiment [2] was inactive.

Consider `Cc1nncc(C#Cc2ccccc2)n1`, for which, in experiment [1] (cho-k1), the IC50 entry is reported as “Not Active”.

For the molecule `Cc1cnnc(C#Cc2ccc3c(c2)OCO3)n1`, in experiment [1] (cho-k1), the IC50 entry is reported as “Not Active”.

In the case of `Cc1cnnc(C#Cc2ccc(Oc3ccccc3)cc2)n1`, in experiment [1] (read-out: IC50), the concentration for half-maximal inhibition (IC50) amounted to 80 nM. Besides, the result in experiment [2] was inactive.

`Cc1cnnc(C#Cc2cccc(C(F)(F)F)c2)n1`: the IC50 in experiment [1] (read-out: IC50) was 85 nM. For the same molecule, the result in experiment [2] was inactive.

Consider `Cc1cnnc(C#Cc2cccc(Br)c2)n1`, for which, in experiment [1] (read-out: IC50), the IC50 amounted to 6 nM. Also, the outcome in experiment [2] was inactive.
